Assay results taken from patent US20040254162A1, “Oxazolidinone derivatives as antimicrobials” (priority 2001, published 2004).
Values after ≈ are worked out from the molar mass of the structure shown.

Assays:
Test in all cases: MIC, agar incorporation method
S. aureus ATCC 25923 = details: agar incorporation
MRSA 15187 = details: agar incorporation
MRSA 562 = details: agar incorporation; Table 1
MRSA 33 = details: agar incorporation
Ent. faecalis ATCC 29212 = details: agar incorporation
VRE 6A (Ent. faecium 6A) = details: agar incorporation
Strep. pyog. ATCC 19615 = details: agar incorporation
Strep. pne. ATCC 6303 = details: agar incorporation
S. pneum AB 34 = details: agar incorporation

| Compound | MIC S. aureus 25923 (S. aureus ATCC 25923) [µg/mL] | MIC MRSA 15187 (MRSA 15187) [µg/mL] | MIC MRSA 562 (MRSA 562) [µg/mL] | MIC MRSA 33 (MRSA 33) [µg/mL] | MIC E. faecalis 29212 (Ent. faecalis ATCC 29212) [µg/mL] | MIC VRE 6A (VRE 6A (Ent. faecium 6A)) [µg/mL] | MIC S. pyogenes 19615 (Strep. pyog. ATCC 19615) [µg/mL] | MIC S. pneum 6303 (Strep. pne. ATCC 6303) [µg/mL] | MIC S. pneum AB 34 (S. pneum AB 34) [µg/mL] |
| --- | --- | --- | --- | --- | --- | --- | --- | --- | --- |
| CC(=O)NC[C@H]1CN(c2ccc(N3CCN(Cc4cccs4)CC3)c(F)c2)C(=O)O1 [Compound No. 12, (S)-N-[[3-[3-Fluoro-4-[N-1[4-(2-thienylmethyl)]piperazinyl]phenyl]-2-oxo-5-oxazolidinyl]methyl]acetamide] | 8 (≈ 18.5 µM) | 8 (≈ 18.5 µM) | 8 (≈ 18.5 µM) | 8 (≈ 18.5 µM) | 8 (≈ 18.5 µM) | 8 (≈ 18.5 µM) | 4 (≈ 9.25 µM) | 8 (≈ 18.5 µM) | 8 (≈ 18.5 µM) |
| COC(=O)Cc1ccc(NC(=O)ON=Cc2ccc(CN3CCN(c4ccc(N5C[C@H](CNC(C)=O)OC5=O)cc4F)CC3)o2)cc1 [Compound No. 61] | 8 (≈ 12.3 µM) | 8 (≈ 12.3 µM) |  | 8 (≈ 12.3 µM) | 8 (≈ 12.3 µM) | 8 (≈ 12.3 µM) | 8 (≈ 12.3 µM) | 8 (≈ 12.3 µM) | 8 (≈ 12.3 µM) |
| CC(=O)NC[C@H]1CN(c2ccc(N3CCN(Cc4ccc([N+](=O)[O-])o4)CC3)c(F)c2)C(=O)O1.O=C(O)CC(O)(CC(=O)O)C(=O)O [Compound No. 17] | 2 | 2 |  | 2 | 2 | 4 | 1 | 2 | 1 |
| CC(=O)NC[C@H]1CN(c2ccc(N3CCC(N(C)Cc4ccc([N+](=O)[O-])s4)CC3)c(F)c2)C(=O)O1 [Compound No. 51, (S)-N-[[3-[4-[4-(N-methyl-N-2-thienyl(5-nitro)methyl)aminopiperidine-1-yl]-3-fluorophenyl]-2-oxo-oxazolidin-5-yl]methyl]acetamide] | 2 (≈ 3.96 µM) | 1 (≈ 1.98 µM) | 1 (≈ 1.98 µM) | 1 (≈ 1.98 µM) | 4 (≈ 7.91 µM) | 4 (≈ 7.91 µM) | 0.5 (≈ 0.989 µM) |  | 2 (≈ 3.96 µM) |
| CC(=O)NC[C@H]1CN(c2ccc(N3CCN(Cc4ccc(C=NO)o4)CC3)c(F)c2)C(=O)O1 [Compound No. 60, (S)-N-[[3-[3-Fluoro-4-[N-1-[4-(2-furyl-(5-aldoxime)methyl}]piperazinyl]phenyl]-2-oxo-5-oxazolidinyl]methyl]acetamide] | 2 (≈ 4.35 µM) | 2 (≈ 4.35 µM) |  | 2 (≈ 4.35 µM) | 8 (≈ 17.4 µM) | 16 (≈ 34.8 µM) | 4 (≈ 8.71 µM) | 8 (≈ 17.4 µM) | 8 (≈ 17.4 µM) |
| CC(=O)NC[C@H]1CN(c2ccc(N3CCN(Cc4ccc([N+](=O)[O-])s4)CC3)c(F)c2)C(=O)O1 [Compound No. 23, (S)-N[[3-[3-Fluoro-4-[N-1[4-(2-thienyl(5-nitro)methyl}]piperazinyl]phenyl]2-oxo-5-oxazolidinyl]methyl]acetamide] | 8 (≈ 16.8 µM) | 8 (≈ 16.8 µM) |  | 8 (≈ 16.8 µM) | 8 (≈ 16.8 µM) | 8 (≈ 16.8 µM) | 1 (≈ 2.09 µM) | 8 (≈ 16.8 µM) | 8 (≈ 16.8 µM) |
| CC(=O)NC[C@H]1CN(c2ccc(N3CCN(Cc4ccc(Cl)s4)CC3)c(F)c2)C(=O)O1 [Compound No. 10, (S)-N[[3-[3-Fluoro-4-[N-1[4-{2-thienyl(5-chloro)methyl}]piperazinyl]phenyl]2-oxo-5-oxazolidinyl]methyl]acetamide] | 8 (≈ 17.1 µM) | 4 (≈ 8.57 µM) |  | 4 (≈ 8.57 µM) | 8 (≈ 17.1 µM) | 4 (≈ 8.57 µM) | 1 (≈ 2.14 µM) | 4 (≈ 8.57 µM) | 8 (≈ 17.1 µM) |
| CC(=O)NC[C@H]1CN(c2ccc(N3CCN(C(=O)c4ccco4)CC3)c(F)c2)C(=O)O1 [Compound No. 01, (S)-N-[[3-[3-Fluoro-4-[N-1-[4-(2-furoyl)piperazinyl]]phenyl]-2-oxo-5-oxazolidinyl]methyl]acetamide] | 2 (≈ 4.65 µM) | 2 (≈ 4.65 µM) |  | 4 (≈ 9.29 µM) | 2 (≈ 4.65 µM) | 2 (≈ 4.65 µM) | 1 (≈ 2.32 µM) | 2 (≈ 4.65 µM) | 1 (≈ 2.32 µM) |

Next, values leading:

| MIC S. aureus 25923 (S. aureus ATCC 25923) [µg/mL] | MIC MRSA 15187 (MRSA 15187) [µg/mL] | MIC MRSA 562 (MRSA 562) [µg/mL] | MIC MRSA 33 (MRSA 33) [µg/mL] | MIC E. faecalis 29212 (Ent. faecalis ATCC 29212) [µg/mL] | MIC VRE 6A (VRE 6A (Ent. faecium 6A)) [µg/mL] | MIC S. pyogenes 19615 (Strep. pyog. ATCC 19615) [µg/mL] | MIC S. pneum 6303 (Strep. pne. ATCC 6303) [µg/mL] | MIC S. pneum AB 34 (S. pneum AB 34) [µg/mL] | Compound |
| --- | --- | --- | --- | --- | --- | --- | --- | --- | --- |
| 16 (≈ 33.4 µM) | 4 (≈ 8.35 µM) |  | 4 (≈ 8.35 µM) | 8 (≈ 16.7 µM) | 8 (≈ 16.7 µM) | 4 (≈ 8.35 µM) | 4 (≈ 8.35 µM) | 4 (≈ 8.35 µM) | CC(=O)NC[C@H]1CN(c2ccc(N3CCN(C(=O)c4ccc(CCl)o4)CC3)c(F)c2)C(=O)O1 [Compound No. 05, (S)-N-[[3-Fluoro-4-[N-1[4-(5-chloromethyl-2-furoyl)piperazinyl]phenyl]-2-oxo-5-oxazolidinyl]methyl]acetamide] |
| 4 (≈ 7.47 µM) | 4 (≈ 7.47 µM) |  | 4 (≈ 7.47 µM) | 4 (≈ 7.47 µM) | 4 (≈ 7.47 µM) | 0.5 (≈ 0.934 µM) | 8 (≈ 14.9 µM) | 4 (≈ 7.47 µM) | CC(=O)NC[C@H]1CN(c2ccc(N3C[C@@H]4[C@H](C3)[C@H]4N(C)C(=O)c3ccc(Br)o3)c(F)c2)C(=O)O1 [Compound No. 33, (S)-N-[[3-[3-Fluoro[4-[3-(1α,5α,6α)-6-[N-(5-bromo-2-furoyl)-N-methyl]amino]-3-azabicyclo-[3.1.0.]hexane]phenyl]-2-oxo-5-oxazolidinyl]methyl]acetamide] |
| 8 (≈ 17.5 µM) | 8 (≈ 17.5 µM) |  | 8 (≈ 17.5 µM) | 8 (≈ 17.5 µM) | 8 (≈ 17.5 µM) | 1 (≈ 2.19 µM) | 4 (≈ 8.76 µM) | 4 (≈ 8.76 µM) | CC(=O)NC[C@H]1CN(c2ccc(N3CC4C(C3)C4N(C)C(=O)c3ccoc3)c(F)c2)C(=O)O1 (stereo partly drawn) [Compound No. 32, (S)-N-[[3-[3-Fluoro[4-[3-(1α,5α,6α)-6-[N-(3-furoyl)-N-methyl]amino]-3-azabicyclo-[3.1.0]hexane]phenyl]-2-oxo-5-oxazolidinyl]methyl]acetamide] |
| 8 (≈ 16.9 µM) | 8 (≈ 16.9 µM) |  | 8 (≈ 16.9 µM) | 8 (≈ 16.9 µM) | 8 (≈ 16.9 µM) | 1 (≈ 2.12 µM) | 4 (≈ 8.46 µM) | 8 (≈ 16.9 µM) | CC(=O)NC[C@H]1CN(c2ccc(N3CC4C(C3)C4N(C)C(=O)c3ccsc3)c(F)c2)C(=O)O1 (stereo partly drawn) [Compound No. 73, (S)-N-[[3-[3-Fluoro[4-[3-(1α,5α,6α)-6-[N-(3-thienoyl)-N-methyl]amino]-3-aza-bicyclo[3.1.0]hexane]phenyl]-2-oxo-5-oxazolidinyl]methyl]acetamide] |
| 8 (≈ 17 µM) | 4 (≈ 8.5 µM) |  | 4 (≈ 8.5 µM) | 8 (≈ 17 µM) | 8 (≈ 17 µM) | 0.25 (≈ 0.531 µM) | 4 (≈ 8.5 µM) | 4 (≈ 8.5 µM) | CC(=O)NC[C@H]1CN(c2ccc(N3CC4C(C3)C4N(C)Cc3ccc(C=O)o3)c(F)c2)C(=O)O1 (stereo partly drawn) [Compound No. 72, (S)-N-[[3-[3-Fluoro[4-[3-(1α,5α,6α)-6-[N-(5-formyl-2-furylmethyl)-N-methyl]-amino]-3-azabicyclo-[3.1.0]hexane]phenyl]-2-oxo-5-oxazolidinyl]methyl]acetamide] |
